The record followed here is ChEMBL document CHEMBL1641372 (Bioorg Med Chem Lett, 2011).

Series [1] has as its target T1, 5-hydroxytryptamine receptor 3A (Homo sapiens, UniProt P46098).
T1 sequence (P46098 whole entry): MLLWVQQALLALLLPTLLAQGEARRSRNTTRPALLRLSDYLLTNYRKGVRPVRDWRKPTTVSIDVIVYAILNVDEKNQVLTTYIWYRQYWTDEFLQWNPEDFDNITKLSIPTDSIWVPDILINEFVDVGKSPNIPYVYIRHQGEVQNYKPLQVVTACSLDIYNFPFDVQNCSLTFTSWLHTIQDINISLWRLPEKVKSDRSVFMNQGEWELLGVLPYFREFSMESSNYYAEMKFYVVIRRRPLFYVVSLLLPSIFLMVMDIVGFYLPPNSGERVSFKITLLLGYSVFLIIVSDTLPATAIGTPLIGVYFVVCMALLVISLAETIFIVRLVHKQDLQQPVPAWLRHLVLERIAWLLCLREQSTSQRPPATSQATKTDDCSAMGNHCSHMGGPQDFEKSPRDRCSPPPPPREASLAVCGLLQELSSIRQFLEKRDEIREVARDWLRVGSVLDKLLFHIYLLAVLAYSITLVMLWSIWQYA
In words: Binding affinity to human 5HT3A receptor. The class given is single protein.

Another series has as its target Cytochrome P450 3A4 (Homo sapiens, UniProt P08684). In words: Inhibition of human CYP3A4. The class given is ADME.
A short description of series [2]: Intrinsic clearance in human liver microsomes assessed per mg of protein. The class given is ADME, Microsome. In general terms: Microsomes from liver hold many membrane-bound enzymes, among them those of drug oxidation.
For a further series, the system named is Mus musculus. In words: Partial agonist activity at 5HT3 receptor in po dosed mouse assessed inhibition of serotonin-induced bradycardia administered 1 hr before serotonin challenge by von Bezold-Jarisch reflex test. The class given is functional.
In series [3] the target is T1, 5-hydroxytryptamine receptor 3A. In words: Partial agonist activity at human 5HT3A receptor expressed in HEK293 cells assessed as effect on serotonin-induced response. The class given is functional, cell-based.
The target is the same in series [4]. In words: Partial agonist activity at human 5HT3A receptor expressed in HEK293 cells assessed as decrease in 10 uM 5-chloroindole-induced increase in intracellular calcium release. The class given is functional, cell-based.
The target of series [5] is T2, 5-hydroxytryptamine receptor 1A (Homo sapiens) (UniProt P08908).
T2 sequence (whole entry): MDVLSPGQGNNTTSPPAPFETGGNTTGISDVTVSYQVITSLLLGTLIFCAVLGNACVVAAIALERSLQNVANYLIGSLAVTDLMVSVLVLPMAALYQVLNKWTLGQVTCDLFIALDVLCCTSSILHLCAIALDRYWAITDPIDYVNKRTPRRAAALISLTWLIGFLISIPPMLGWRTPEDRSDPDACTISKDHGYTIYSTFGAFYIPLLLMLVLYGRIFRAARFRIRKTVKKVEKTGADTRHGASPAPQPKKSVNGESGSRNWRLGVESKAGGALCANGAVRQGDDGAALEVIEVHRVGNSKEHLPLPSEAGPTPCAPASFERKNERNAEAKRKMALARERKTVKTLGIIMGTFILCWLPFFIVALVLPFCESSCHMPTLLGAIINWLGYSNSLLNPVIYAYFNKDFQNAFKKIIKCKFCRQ
In words: Inhibition of 5HT1A receptor at 1 uM.

Series [6] addresses 5-hydroxytryptamine receptor 4 (Homo sapiens) (UniProt Q13639). Put plainly: Inhibition of 5HT4 receptor at 1 uM.
A short description of series [7]: Inhibition of human CYP450. The class given is ADME.
Series [8] can be described thus: Solubility of the compound at pH 7.4 phosphate buffered saline. The class given is physicochemical.

Sequence of Cytochrome P450 3A4 (P08684 whole entry): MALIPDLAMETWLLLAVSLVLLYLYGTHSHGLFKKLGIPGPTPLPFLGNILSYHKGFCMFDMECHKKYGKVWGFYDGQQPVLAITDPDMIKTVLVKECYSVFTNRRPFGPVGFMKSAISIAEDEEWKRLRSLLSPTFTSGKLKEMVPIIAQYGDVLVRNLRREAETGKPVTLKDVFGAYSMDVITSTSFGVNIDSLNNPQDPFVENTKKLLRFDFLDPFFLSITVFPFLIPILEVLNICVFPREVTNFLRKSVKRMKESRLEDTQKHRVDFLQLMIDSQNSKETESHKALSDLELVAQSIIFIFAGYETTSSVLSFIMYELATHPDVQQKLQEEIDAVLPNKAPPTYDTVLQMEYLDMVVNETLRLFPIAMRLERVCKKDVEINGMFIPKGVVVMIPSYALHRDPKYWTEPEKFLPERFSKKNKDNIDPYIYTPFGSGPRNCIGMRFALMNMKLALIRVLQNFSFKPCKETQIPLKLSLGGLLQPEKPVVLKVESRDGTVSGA
Sequence of 5-hydroxytryptamine receptor 4 (Homo sapiens) (Q13639 whole entry): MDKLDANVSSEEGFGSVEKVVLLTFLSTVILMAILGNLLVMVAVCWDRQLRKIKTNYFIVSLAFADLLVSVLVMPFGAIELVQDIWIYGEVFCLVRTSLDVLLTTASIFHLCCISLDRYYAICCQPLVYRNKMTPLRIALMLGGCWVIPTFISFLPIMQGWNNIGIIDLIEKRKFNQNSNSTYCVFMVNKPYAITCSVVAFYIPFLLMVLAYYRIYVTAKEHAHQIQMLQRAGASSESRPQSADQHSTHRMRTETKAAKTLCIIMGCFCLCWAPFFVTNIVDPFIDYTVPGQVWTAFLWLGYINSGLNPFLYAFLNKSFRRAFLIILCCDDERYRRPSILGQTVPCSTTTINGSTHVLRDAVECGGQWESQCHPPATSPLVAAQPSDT

One may read the Ki as a dissociation constant, usually derived from enzyme kinetics or from competition with a known ligand. A higher Ki goes with weaker binding. In the case of `Cn1cc2c3c(cccc31)C(=O)N([C@H]1CN3CCC1CC3)C2`, the affinity in series [1], expressed as Ki, was 0.9 nM.

The IC50 is the concentration needed to halve the response being measured. As usually defined, the microsomal CLint is a measure of how fast metabolising enzymes remove a compound, apart from limits set by blood flow. Higher therefore signals faster metabolism. A word on the ED50: it is the dose that gives a 50% effect, or the effect in half of the subjects. The low end stands for an effect at a small dose, the high end for a need for a large dose. As usually defined, the EC50 is the concentration that produces a half-maximal response. Turning to `O=C(N[C@H]1CN2CCC1CC2)c1c[nH]c2ccsc2c1=O` [PUMOSETRAG], the IC50 against Cytochrome P450 3A4 was determined as 9300 nM. Besides, the microsomal CLint in [2] worked out at 24 µL/min/mg. The compound also gave an ED50 in the series with Mus musculus of 0.96 mg/kg. The figures for the EC50 in series [3] and in series [4] were 5.4 nM and 9.2 nM, respectively.

In the case of `CCn1nc2c3c(cccc31)C(=O)N([C@@H]1CN3CCC1CC3)C2`, in series [1], affinity was put at a Ki of 1.6 nM.

Compound `Cn1nc2c3c(cccc31)C(=O)N([C@@H]1CN3CCC1CC3)C2` displayed a Ki in series [1] of 0.7 nM.

For orientation: inhibition means the change of the read-out against control, counted positive when it falls. Higher therefore signals a response far below the control. In the case of `O=C1c2cccc3[nH]nc(c23)CN1[C@@H]1CN2CCC1CC2`, the inhibition in series [5] and in series [6] was greater than 50% each time.

For the compound `CCn1nc2c3c(cccc31)C(=O)N([C@H]1CN3CCC1CC3)C2`, the Ki in series [1] was found to be 2 nM.

On to `O=C1c2cccc3[nH]nc(c23)CN1[C@H]1CN2CCC1CC2`, for which the IC50 in series [7] is greater than 50000 nM; against Cytochrome P450 3A4, less than 10000 nM. The compound further yielded a microsomal CLint in series [2] of 7.3 µL/min/mg. Besides, the inhibition in series [5] and in [6] was greater than 50% in each case. This compound also had an ED50 with Mus musculus of 0.64 mg/kg.

In [1], `Cn1cc2c3c(cccc31)C(=O)N([C@@H]1CN3CCC1CC3)C2` had a Ki of 0.7 nM.

In turn, `CC(C)Cn1nc2c3c(cccc31)C(=O)N([C@@H]1CN3CCC1CC3)C2` registered a Ki in series [1] of 2.4 nM.

Turning to `O=C1c2cccc3c2c(nn3Cc2ccccc2)CN1[C@H]1CN2CCC1CC2`, the Ki in series [1] amounted to 7.1 nM.

Take `Cc1[nH]cnc1CN1CCc2c(c3ccccc3n2C)C1=O` [ALOSETRON]: the ED50 in the series on Mus musculus stood at 0.02 mg/kg.

By solubility is commonly meant the concentration that dissolves in the medium under given conditions. High values mean much dissolved substance, low ones little dissolved substance. As for `Cn1nc2c3c(cccc31)C(=O)N([C@H]1CN3CCC1CC3)C2`, the IC50 in [7] was greater than 50000 nM; against Cytochrome P450 3A4, less than 10000 nM. In addition, in series [2], the microsomal CLint was 3.8 µL/min/mg. Besides, in series [8], the solubility was greater than 500 µM. In the series on Mus musculus, this compound showed a median effective dose (ED50) of 0.25 mg/kg. Moreover, the affinity in series [1] corresponds to a Ki of 1.7 nM. Further, the EC50 stood at 12.6 nM in series [3] and 6.9 nM in series [4].

In series [1], `Cn1nc2c3c(cc(F)cc31)C(=O)N([C@H]1CN3CCC1CC3)C2` displayed a Ki of 2 nM.
